Experimental data published in patent US12371430B2, “5-morpholin-4-yl-pyrazolo[4,3-b]pyridine derivatives” (Merck Patent GmbH, priority 2018, dated 2025).

Legend:
[1] = test system: phosphorylation of Chk1 (Ser 345) in HT29 colon adenocarcinoma cells; experiment: pCHK1 cellular assay; format: cell-based; conditions: Homo sapiens, HT-29, hydroxyurea 3 mM, 4 h
Source text: Chk1 kinase acts downstream of ATR and has a key role in DNA damage checkpoint control. Activation of Chk1 involves phosphorylation of Ser317 and Ser345 (regarded as the preferential target for phosphorylation/activation by ATR) and occurs in response to blocked DNA replication and certain forms of genotoxic stress. Phosphorylation at Ser 345 serves to localize Chk1 to the nucleus following checkpoint activation.
This assay measures a decrease in phosphorylation of Chk1 (Ser 345) in HT29 colon adenocarcinoma cells following treatment with compound and hydroxyurea (which promotes fork stalling because of dNTP depletion) and using an immunocytochemical procedure and high content imaging.
For the assay HT29 cells are plated in culture medium (DMEM high Glucose (no phenol red), 2 mM Glutamax, 1 mM Pyruvate, 10% FCS into Greiner 384 well plates, black, μclear #781090 (2500 cells/well/30 μl) and incubated for at least 20 hours at 37° C., 10% CO2 and 90% rH. Diluted test compounds (1 nM-30 μM final) and hydroxyurea (3 mM final) are added simultaneously and cells are incubated for 4 h at 37° C. After fixation/prmeabilisation with 100% MeOH (−20° C. cold) and permeabilisation with 0.2% Triton X-100 a complete immunocytochemical procedure is performed using a specific anti-pChk1 antibody (Cell Signaling, #2348BF) and fluorescently labelled secondary antibody (Alexa Fluor® 488 goat anti-rabbit F(ab′)2 fragment, Invitrogen A11070) and parallel nuclear staining for cell counting.
The nuclear localised pChk1 signal is detected on an ImageXpress Ultra confocal high content reader and reported as % positive cells (nuclei).

[2] = target: ATR/ATRIP (Homo sapiens (Human), UniProt Q13535); experiment: ATR/ATRIP kinase assay (TR-FRET, p53 Ser15 phosphorylation); format: biochemical; conditions: 0.5 μM ATP, 50 nM p53
Protocol: ATR/ATRIP Kinase Assay—Measurement of ATR/ATRIP Inhibition
The IC50 value was determined by an ATR/ATRIP enzymatic assay. The assay comprises two steps: the enzymatic reaction and the detection step. First, a mixture of ATR/ATRIP protein (Ataxia Telangiectasia and Rad3-related protein/ATR interacting protein), the compound in question at different concentrations, p53 as substrate protein and adenosine triphosphate (ATP) are incubated in assay buffer. ATR phosporylates p53 at Ser15 and other residues. The amount of phosphorylated p53 is then detected using specific antibodies and the TR-FRET assay technology.
In detail: The ATR/ATRIP enzymatic assay is performed as a TR-FRET-(HTRF™, Cisbio Bioassays) based 384-well assay. In a first step, purified human recombinant ATR/ATRIP (human ATR, full length, GenBank ID: NM_001184.3, and human ATRIP, full length, GenBank ID AF451323.1, co-expressed in a mammalian cell line) is incubated in assay buffer for 15 minutes at 22° C. with test compound at different concentrations or without test compound (as a negative control). The assay buffer contains 25 mM HEPES pH 8.0, 10 mM Mg(CH3COO)2, 1 mM MnCl2, 0.1% BSA, 0.01% Brij® 35, and 5 mM dithiothreitol (DTT). An Echo 555 (Labcyte) is used for dispensing of compound solutions. Then, in a second step, purified human recombinant cmyc-tagged p53 (human p53, full length, GenBank ID: BC003596, expressed in Sf21 insect cells) and ATP are added and the reaction mixture is incubated for 25-35 minutes, typically 25 minutes, at 22° C. The pharmacologically relevant assay volume is 5 μl. The final concentrations in the assay during incubation of the reaction mixture are 0.3-0.5 nM, typically 0.3 nM, ATR/ATRIP, 50 nM p53, and 0.5 μM ATP. The enzymatic reaction is stopped by the addition of EDTA. The generation of phosphorylated p53 as a result of the ATR mediated reaction in the presence of ATP is detected by using specific antibodies [labeled with the fluorophores europium (Eu) as donor and d2 as acceptor (Cisbio Bioassays)] enabling FRET. For this purpose, 2 μl of antibody-containing stop solution (12.5 mM HEPES pH 8.0, 125 mM EDTA, 30 mM sodium chloride, 300 mM potassium fluoride, 0.006% Tween-20, 0.005% Brij® 35, 0.21 nM anti-phospho-p53(Ser15)-Eu antibody, 15 nM anti-cmyc-d2 antibody) are added to the reaction mixture. Following signal development for 2 h the plates are analyzed in an EnVision (PerkinElmer) microplate reader using the TRF mode with laser excitation. Upon excitation of the donor europium at 340 nm the emitted fluorescence light of the acceptor d2 at 665 nm as well as from the donor Eu at 615 nm are measured. The amount of phosphorylated p53 is directly proportional to the ratio of the amounts of emitted light i.e. the ratio of the relative fluorescence units (rfu) at 665 nm and 615 nm. Data are processed employing the Genedata Screener software. In particular, IC50 values are determined in the usual manner by fitting a dose-response curve to the data points using nonlinear regression analysis. • IC50=half maximal inhibitory concentration • ATP=Adenosine triphosphate • TR-FRET=Time-Resolved Fluorescence Resonance Energy Transfer • HTRF®=Homogeneous Time Resolved Fluorescence • HEPES=2-(4-(2-Hydroxyethyl)-1-piperazinyl)-ethanesulfonic acid • Mg(CH3COO)2=Magnesium acetate • MnCl2=Manganese(II)-chloride • BSA=Bovine Serum Albumin • EDTA=Ethylendiamine Tetraacetate • TRF=Time Resolved Fluorescence pCHK1 Cellular Assay

ATR/ATRIP, sequence (Q13535 whole entry): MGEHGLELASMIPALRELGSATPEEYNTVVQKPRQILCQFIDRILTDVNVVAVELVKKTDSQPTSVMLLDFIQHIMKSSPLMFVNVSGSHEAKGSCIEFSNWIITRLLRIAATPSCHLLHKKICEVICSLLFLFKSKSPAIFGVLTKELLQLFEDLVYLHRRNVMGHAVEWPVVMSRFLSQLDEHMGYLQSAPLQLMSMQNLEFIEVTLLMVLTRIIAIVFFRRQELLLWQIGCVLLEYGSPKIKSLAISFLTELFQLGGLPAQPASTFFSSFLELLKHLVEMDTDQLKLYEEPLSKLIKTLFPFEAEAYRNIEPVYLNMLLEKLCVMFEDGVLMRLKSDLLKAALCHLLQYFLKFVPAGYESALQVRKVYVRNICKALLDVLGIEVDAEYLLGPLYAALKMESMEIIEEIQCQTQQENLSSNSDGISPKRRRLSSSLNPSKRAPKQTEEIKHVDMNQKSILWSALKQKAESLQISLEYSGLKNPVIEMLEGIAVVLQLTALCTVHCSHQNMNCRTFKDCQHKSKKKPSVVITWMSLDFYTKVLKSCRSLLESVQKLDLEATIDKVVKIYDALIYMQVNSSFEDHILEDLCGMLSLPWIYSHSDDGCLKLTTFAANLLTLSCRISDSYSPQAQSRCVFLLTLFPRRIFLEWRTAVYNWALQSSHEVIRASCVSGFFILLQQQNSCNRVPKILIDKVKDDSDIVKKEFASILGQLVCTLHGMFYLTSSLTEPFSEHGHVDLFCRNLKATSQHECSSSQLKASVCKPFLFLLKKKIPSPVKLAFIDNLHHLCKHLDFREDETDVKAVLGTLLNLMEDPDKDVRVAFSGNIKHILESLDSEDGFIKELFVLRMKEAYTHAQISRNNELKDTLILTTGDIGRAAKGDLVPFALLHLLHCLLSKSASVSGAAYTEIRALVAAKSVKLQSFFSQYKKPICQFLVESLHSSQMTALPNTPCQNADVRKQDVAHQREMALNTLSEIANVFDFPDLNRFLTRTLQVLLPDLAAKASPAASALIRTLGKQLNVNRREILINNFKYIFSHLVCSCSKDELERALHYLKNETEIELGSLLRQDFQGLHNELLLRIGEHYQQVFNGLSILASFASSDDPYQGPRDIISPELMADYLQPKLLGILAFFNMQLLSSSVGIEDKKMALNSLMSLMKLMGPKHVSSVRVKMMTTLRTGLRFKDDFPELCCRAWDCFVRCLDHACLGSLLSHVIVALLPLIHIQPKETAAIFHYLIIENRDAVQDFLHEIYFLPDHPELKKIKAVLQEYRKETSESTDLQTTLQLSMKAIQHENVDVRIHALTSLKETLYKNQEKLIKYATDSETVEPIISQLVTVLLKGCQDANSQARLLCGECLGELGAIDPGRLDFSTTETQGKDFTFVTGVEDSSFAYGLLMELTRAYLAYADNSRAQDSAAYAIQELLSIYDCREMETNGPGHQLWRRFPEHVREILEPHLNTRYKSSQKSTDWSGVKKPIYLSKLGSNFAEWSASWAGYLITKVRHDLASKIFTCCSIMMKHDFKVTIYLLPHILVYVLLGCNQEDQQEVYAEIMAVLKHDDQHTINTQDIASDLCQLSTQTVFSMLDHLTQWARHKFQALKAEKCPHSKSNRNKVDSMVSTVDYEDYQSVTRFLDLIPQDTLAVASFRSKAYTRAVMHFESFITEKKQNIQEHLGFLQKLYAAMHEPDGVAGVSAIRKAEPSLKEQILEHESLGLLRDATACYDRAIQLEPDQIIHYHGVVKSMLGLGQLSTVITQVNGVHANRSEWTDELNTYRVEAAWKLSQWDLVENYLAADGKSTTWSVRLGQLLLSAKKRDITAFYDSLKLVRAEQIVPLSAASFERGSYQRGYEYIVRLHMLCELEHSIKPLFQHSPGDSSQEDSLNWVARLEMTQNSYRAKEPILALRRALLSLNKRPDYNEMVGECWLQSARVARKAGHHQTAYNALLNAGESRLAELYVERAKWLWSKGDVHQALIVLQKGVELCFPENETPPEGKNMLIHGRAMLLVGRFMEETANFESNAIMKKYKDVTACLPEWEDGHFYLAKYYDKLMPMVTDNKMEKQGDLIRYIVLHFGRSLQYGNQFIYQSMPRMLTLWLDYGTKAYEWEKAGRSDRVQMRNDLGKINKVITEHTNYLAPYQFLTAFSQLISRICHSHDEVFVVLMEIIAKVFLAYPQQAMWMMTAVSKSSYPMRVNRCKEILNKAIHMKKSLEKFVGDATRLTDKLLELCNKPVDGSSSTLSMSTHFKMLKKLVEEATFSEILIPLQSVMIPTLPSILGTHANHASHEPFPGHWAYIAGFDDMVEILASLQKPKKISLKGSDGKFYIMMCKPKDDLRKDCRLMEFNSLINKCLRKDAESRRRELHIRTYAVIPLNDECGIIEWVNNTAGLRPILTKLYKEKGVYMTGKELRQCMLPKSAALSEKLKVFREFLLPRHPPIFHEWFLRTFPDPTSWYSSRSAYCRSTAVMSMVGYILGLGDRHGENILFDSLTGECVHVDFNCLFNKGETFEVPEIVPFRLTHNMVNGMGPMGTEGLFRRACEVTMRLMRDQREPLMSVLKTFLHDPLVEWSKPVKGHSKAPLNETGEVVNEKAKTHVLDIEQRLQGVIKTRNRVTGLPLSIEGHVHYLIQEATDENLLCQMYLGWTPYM
ATR/ATRIP, sequence (Q8WXE1 whole entry partner): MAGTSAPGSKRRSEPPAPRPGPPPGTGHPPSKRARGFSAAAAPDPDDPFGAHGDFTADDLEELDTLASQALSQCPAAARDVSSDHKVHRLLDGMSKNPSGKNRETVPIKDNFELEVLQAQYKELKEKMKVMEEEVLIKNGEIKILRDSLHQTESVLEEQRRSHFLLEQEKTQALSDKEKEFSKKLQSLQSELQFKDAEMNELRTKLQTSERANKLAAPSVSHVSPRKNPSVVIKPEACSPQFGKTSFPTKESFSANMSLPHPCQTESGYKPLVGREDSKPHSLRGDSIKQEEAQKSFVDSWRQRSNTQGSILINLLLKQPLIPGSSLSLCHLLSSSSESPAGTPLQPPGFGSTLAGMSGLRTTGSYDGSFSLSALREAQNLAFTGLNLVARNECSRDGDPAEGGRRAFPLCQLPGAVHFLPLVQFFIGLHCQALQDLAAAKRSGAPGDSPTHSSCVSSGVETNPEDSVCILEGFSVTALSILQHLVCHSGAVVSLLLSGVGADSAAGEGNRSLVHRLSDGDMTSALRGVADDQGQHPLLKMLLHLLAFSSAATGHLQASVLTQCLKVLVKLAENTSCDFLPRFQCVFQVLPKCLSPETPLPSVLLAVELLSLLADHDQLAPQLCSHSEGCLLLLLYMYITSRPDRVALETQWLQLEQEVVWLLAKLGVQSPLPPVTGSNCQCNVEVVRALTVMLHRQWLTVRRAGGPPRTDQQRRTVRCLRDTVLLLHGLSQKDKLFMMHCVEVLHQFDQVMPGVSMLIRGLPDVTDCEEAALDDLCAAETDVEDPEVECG

| SMILES | IC50 [1] | IC50 [2] |
| --- | --- | --- |
| C[C@@H]1COCCN1c1cc(-c2ccccn2)c2[nH]nc(-c3cc[nH]n3)c2n1 [Compound 38, (3R)-3-Methyl-4-[3-(1H-pyrazol-3-yl)-7-(pyridin-2-yl)-1H-pyrazolo[4,3-b]pyridin-5-yl]morpholine] | 100 to 1000 nM | 4.3 nM |
| Cc1cccnc1-c1cc(N2CCOC[C@H]2C)nc2c(-c3cc[nH]n3)n[nH]c12 [Compound 39, (3R)-3-Methyl-4-[7-(3-methylpyridin-2-yl)-3-(1H-pyrazol-3-yl)-1H-pyrazolo[4,3-b]pyridin-5-yl]morpholine] | 100 to 1000 nM | 7.9 nM |
| C[C@@H]1COCCN1c1cc(C2CC2)c2c(n1)c(-c1ccn[nH]1)nn2C [Compound 43, 7-Cyclopropyl-1-methyl-5-((R)-3-methyl-morpholin-4-yl)-3-(2H-pyrazol-3-yl)-1H-pyrazolo[4,3-b]pyridine] | 100 to 1000 nM | 3.9 nM |
| CC(C)Oc1cc(N2CCOC[C@H]2C)nc2c(-c3ccn[nH]3)nn(C)c12 [Compound 44, 7-Isopropoxy-1-methyl-5-((R)-3-methyl-morpholin-4-yl)-3-(2H-pyrazol-3-yl)-1H-pyrazolo[4,3-b]pyridine] | 100 to 1000 nM | 4.2 nM |
| C[C@@H]1COCCN1c1ccc2c(n1)c(-c1cc[nH]n1)nn2-c1ccc(S(C)(=O)=O)cc1 [Compound 46, 1-(4-Methanesulfonyl-phenyl)-5-((R)-3-methyl-morpholin-4-yl)-3-(1H-pyrazol-3-yl)-1H-pyrazolo[4,3-b]pyridine] | 1000 to 10000 nM | 25 nM |
| C[C@@H]1COCCN1c1ccc2c(n1)c(-c1cc[nH]n1)nn2-c1cccc(S(C)(=O)=O)c1 [Compound 47, 1-(3-Methanesulfonyl-phenyl)-5-((R)-3-methyl-morpholin-4-yl)-3-(1H-pyrazol-3-yl)-1H-pyrazolo[4,3-b]pyridine] | 1000 to 10000 nM | 89 nM |
| C[C@@H]1COCCN1c1ccc2c(n1)c(-c1cc[nH]n1)nn2-c1cccc(C#N)c1 [Compound 53, 3-[5-((3R)-3-Methyl-morpholin-4-yl)-3-(1H-pyrazol-3-yl)-1H-pyrazolo[4,3-b]pyridin-1-yl]-benzonitrile] | 1000 to 10000 nM | 58 nM |
| C[C@@H]1COCCN1c1ccc2[nH]nc(-c3cc[nH]n3)c2n1 [Compound 56, (3R)-3-Methyl-4-[3-(1H-pyrazol-3-yl)-1H-pyrazolo[4,3-b]pyridin-5-yl]morpholine] | 1000 to 10000 nM | 25 nM |
| C[C@@H]1COCCN1c1ccc2c(n1)c(-c1cc[nH]n1)nn2Cc1cccc(S(C)(=O)=O)c1 [Compound 57, (3R)-4-{1-[(3-Methanesulfonylphenyl)methyl]-3-(1H-pyrazol-3-yl)-1H-pyrazolo[4,3-b]pyridin-5-yl}-3-methylmorpholine] | 1000 to 10000 nM | 150 nM |
| C[C@@H]1COCCN1c1ccc2c(n1)c(-c1ccn[nH]1)nn2Cc1ccccc1 [Compound 59, (3R)-4-[1-Benzyl-3-(1H-pyrazol-5-yl)-1H-pyrazolo[4,3-b]pyridin-5-yl]-3-methylmorpholine] | 1000 to 10000 nM | 21 nM |
| C[C@@H]1COCCN1c1ccc2c(n1)c(-c1cc[nH]n1)nn2CC1CC1 [Compound 63, (3R)-4-[1-(Cyclopropylmethyl)-3-(1H-pyrazol-3-yl)-1H-pyrazolo[4,3-b]pyridin-5-yl]-3-methylmorpholine] | 100 to 1000 nM | 27 nM |

Further lines, results first:

| IC50 [1] | IC50 [2] | SMILES |
| --- | --- | --- |
| 1000 to 10000 nM | 20 nM | C[C@@H]1COCCN1c1cc(C(N)=O)c2c(n1)c(-c1cc[nH]n1)nn2C [Compound 32, 1-Methyl-5-((R)-3-methyl-morpholin-4-yl)-3-(1H-pyrazol-3-yl)-1H-pyrazolo[4,3-b]pyridine-7-carboxylic acid amide] |
| 100 to 1000 nM | 16 nM | Cc1cccc(-c2cc(N3CCOC[C@H]3C)nc3c(-c4cc[nH]n4)nn(C)c23)n1 [Compound 33, 1-Methyl-5-((R)-3-methyl-morpholin-4-yl)-7-(6-methyl-pyridin-2-yl)-3-(1H-pyrazol-3-yl)-1H-pyrazolo[4,3-b]pyridine] |
| 100 to 1000 nM | 7.9 nM | C[C@@H]1COCCN1c1cc(-c2ccn(CCO)n2)c2c(n1)c(-c1cc[nH]n1)nn2C [Compound 37, 2-{3-[1-Methyl-5-((R)-3-methyl-morpholin-4-yl)-3-(1H-pyrazol-3-yl)-1H-pyrazolo[4,3-b]pyridin-7-yl]-pyrazol-1-yl}-ethanol] |
| 10 to 100 nM | 1.3 nM | CC(C)n1nc(-c2cc[nH]n2)c2nc(N3CCOC[C@H]3C)cc(-c3ccc(S(C)(=O)=O)cc3)c21 [Compound 41, (3R)-4-[7-(4-Methanesulfonylphenyl)-1-(propan-2-yl)-3-(1H-pyrazol-3-yl)-1H-pyrazolo[4,3-b]pyridin-5-yl]-3-methylmorpholine] |
| 100 to 1000 nM | 1.2 nM | COCc1ccc(-c2cc(N3CCOC[C@H]3C)nc3c(-c4cc[nH]n4)nn(C)c23)cc1 [Compound 51, (3R)-4-{7-[4-(Methoxymethyl)phenyl]-1-methyl-3-(1H-pyrazol-3-yl)-1H-pyrazolo[4,3-b]pyridin-5-yl}-3-methylmorpholine] |
| 10 to 100 nM | 1.4 nM | C[C@@H]1COCCN1c1cc(-c2ccc(CO)cc2)c2c(n1)c(-c1cc[nH]n1)nn2C [Compound 52, (4-{1-Methyl-5-[(3R)-3-methylmorpholin-4-yl]-3-(1H-pyrazol-3-yl)-1H-pyrazolo[4,3-b]pyridin-7-yl}phenyl)methanol] |
| 100 to 1000 nM | 10 nM | C[C@@H]1COCCN1c1cc(-c2ccccn2)c2c(n1)c(-c1cc[nH]n1)nn2C [Compound 58, (3R)-3-Methyl-4-[1-methyl-3-(1H-pyrazol-3-yl)-7-(pyridin-2-yl)-1H-pyrazolo[4,3-b]pyridin-5-yl]morpholine] |
| 1000 to 10000 nM | 32 nM | C[C@@H]1COCCN1c1ccc2c(n1)c(-c1cc[nH]n1)nn2-c1ccc(C#N)cc1 [Compound 60, 4-[5-[(3R)-3-Methylmorpholin-4-yl]-3-(1H-pyrazol-3-yl)-1H-pyrazolo[4,3-b]pyridin-1-yl]benzonitrile] |
| 1000 to 10000 nM | 22 nM | Cc1cccnc1-c1cc(N2CCOC[C@H]2C)nc2c(-c3cc[nH]n3)nn(C)c12 [Compound 62, (3R)-3-Methyl-4-[1-methyl-7-(3-methylpyridin-2-yl)-3-(1H-pyrazol-3-yl)-1H-pyrazolo[4,3-b]pyridin-5-yl]morpholine] |
